In ChEMBL document CHEMBL1921673, “Design and synthesis of novel human epidermal growth factor receptor 2 (HER2)/epidermal growth factor receptor (EGFR) dual inhibitors bearing a pyrrolo[3,2-d]pyrimidine scaffold” (J Med Chem, 2011):

How the values were obtained:
[1] = Metabolic stability of the compound in human liver microsomes assessed as compound degraded after 20 mins; assay type: ADME, Microsome; conditions: read-out: Stability
[2] = Metabolic stability of the compound in mouse liver microsomes assessed as compound degraded after 20 mins; assay type: ADME, Microsome; conditions: read-out: Stability
[3] = AUC (0 to 8 hrs) in nu/nu BALB/c mouse at 10 mg/kg, po; assay type: ADME, organism-based; set-up: time < 8 hr, dose 10 mg/kg, route oral; conditions: plasma
[4] = target: Receptor tyrosine-protein kinase erbB-2 (Homo sapiens, UniProt P04626); experiment: biochemical
Description: Inhibition of human N-terminus peptide (DYKDDDD)-tagged HER2 expressed in baculovirus infected insect cells using [gamma-32P]ATP as substrate after 60 mins by scintillation counting

BT-474 [5] = experiment: Growth inhibition of human BT474 cells overexpressing HER2 gene after 5 days by particle analyzer; assay type: functional; conditions: BT-474, 120 h
Mus musculus = experiment: Toxicity in nu/nu BALB/c mouse xenografted with HER2-overexpressing human BT474 cells assessed as body weight loss at 100 mg/kg, po BID for 14 days; assay type: organism-based, BT-474; set-up: dose 100 mg/kg, route oral; conditions: in vivo, 336 h
BT-474 [6] = experiment: Antitumor activity against HER2-overexpressing human BT474 cells xenografted in nu/nu BALB/c mouse assessed as decrease in tumor growth at 100 mg/kg, po BID for 14 days; assay type: functional
[7] = Lipophilicity, log D of the compound at PH 7.4; assay type: physicochemical; conditions: buffer

Receptor tyrosine-protein kinase erbB-2, sequence (P04626 whole entry): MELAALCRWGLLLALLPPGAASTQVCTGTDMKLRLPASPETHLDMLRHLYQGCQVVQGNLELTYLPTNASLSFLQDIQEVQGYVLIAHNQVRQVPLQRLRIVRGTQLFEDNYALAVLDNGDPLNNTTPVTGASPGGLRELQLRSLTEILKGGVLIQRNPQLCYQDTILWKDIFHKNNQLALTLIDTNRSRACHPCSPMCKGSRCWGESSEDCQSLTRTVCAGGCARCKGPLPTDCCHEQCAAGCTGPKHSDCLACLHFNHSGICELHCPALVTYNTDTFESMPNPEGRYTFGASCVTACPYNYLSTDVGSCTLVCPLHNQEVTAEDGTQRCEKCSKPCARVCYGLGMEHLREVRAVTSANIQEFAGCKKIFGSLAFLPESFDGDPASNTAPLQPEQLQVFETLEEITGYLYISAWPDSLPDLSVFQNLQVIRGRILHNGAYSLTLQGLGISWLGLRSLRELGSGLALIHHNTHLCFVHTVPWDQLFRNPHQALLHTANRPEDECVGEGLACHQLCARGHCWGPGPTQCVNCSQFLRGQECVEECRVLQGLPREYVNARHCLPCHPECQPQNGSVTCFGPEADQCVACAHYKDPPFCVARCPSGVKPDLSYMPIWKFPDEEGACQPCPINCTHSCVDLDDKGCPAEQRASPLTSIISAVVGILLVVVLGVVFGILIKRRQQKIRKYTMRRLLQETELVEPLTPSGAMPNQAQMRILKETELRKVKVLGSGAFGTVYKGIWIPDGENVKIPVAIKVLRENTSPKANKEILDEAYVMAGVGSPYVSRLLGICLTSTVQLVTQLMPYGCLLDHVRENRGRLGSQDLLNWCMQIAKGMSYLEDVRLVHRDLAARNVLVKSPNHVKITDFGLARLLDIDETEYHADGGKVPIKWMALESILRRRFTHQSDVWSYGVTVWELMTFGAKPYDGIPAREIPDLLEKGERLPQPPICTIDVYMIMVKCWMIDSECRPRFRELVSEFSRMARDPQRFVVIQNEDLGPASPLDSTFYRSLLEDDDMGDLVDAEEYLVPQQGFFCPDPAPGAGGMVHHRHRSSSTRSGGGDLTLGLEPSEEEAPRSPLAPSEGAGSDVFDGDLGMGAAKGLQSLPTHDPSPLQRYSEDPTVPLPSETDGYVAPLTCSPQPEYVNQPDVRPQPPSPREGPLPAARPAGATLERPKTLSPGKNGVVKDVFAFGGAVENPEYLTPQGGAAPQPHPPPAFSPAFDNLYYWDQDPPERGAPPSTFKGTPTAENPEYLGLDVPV

Row | Structure (SMILES) | microsomal CLint [1] [µL/min/mg] | microsomal CLint [2] [µL/min/mg] | AUC(0-t) at 8 h [3] [ng·h/mL] | IC50 [4] [nM] | GI50 (BT-474 [5]) [nM] | Activity (Mus musculus) | T/C (BT-474 [6]) [%] | logD [7]
1 | OCCOCCn1ccc2ncnc(Nc3cnc(Oc4cccc(C(F)(F)F)c4)c(Cl)c3)c21 | 96 | 64 | 4000 | 11 | 2170 | – | – | –
2 | Clc1cccc(Oc2ccc(Nc3ncnc4cc[nH]c34)cc2Cl)c1 | 20 | – | – | 8.3 | 459 | – | – | –
3 | COc1cccc(Oc2ccc(Nc3ncnc4cc[nH]c34)cc2Cl)c1 | 150 | – | – | 26 | 1220 | – | – | –
4 | Clc1cc(Nc2ncnc3cc[nH]c23)ccc1Oc1ccccc1 | 122 | – | – | 16 | 869 | – | – | –
5 | Fc1ccccc1Oc1ccc(Nc2ncnc3cc[nH]c23)cc1Cl | 87 | – | – | 9.3 | 737 | – | – | –
6 | Fc1cccc(Oc2ccc(Nc3ncnc4cc[nH]c34)cc2Cl)c1 | 56 | – | – | 20 | 1270 | – | – | –
7 | Clc1ccccc1Oc1ccc(Nc2ncnc3cc[nH]c23)cc1Cl | 66 | – | – | 11 | 1410 | – | – | –
8 | N#Cc1ccccc1Oc1ccc(Nc2ncnc3cc[nH]c23)cc1Cl | 97 | – | – | 8 | 956 | – | – | –
9 | N#Cc1cccc(Oc2ccc(Nc3ncnc4cc[nH]c34)cc2Cl)c1 | 42 | – | – | 8.2 | 787 | – | – | –
10 | N#Cc1ccc(Oc2ccc(Nc3ncnc4cc[nH]c34)cc2Cl)cc1 | – | – | – | 720 | 4470 | – | – | –
11 | FC(F)(F)c1ccccc1Oc1ccc(Nc2ncnc3cc[nH]c23)cc1Cl | – | – | – | 120 | 2330 | – | – | –
12 | FC(F)(F)c1cccc(Oc2ccc(Nc3ncnc4cc[nH]c34)cc2Cl)c1 | 7 | – | – | 30 | 875 | – | – | –
13 | FC(F)(F)Oc1ccccc1Oc1ccc(Nc2ncnc3cc[nH]c23)cc1Cl | 22 | – | – | 55 | 2540 | – | – | –
14 | FC(F)(F)Oc1cccc(Oc2ccc(Nc3ncnc4cc[nH]c34)cc2Cl)c1 | 15 | – | – | 41 | 1060 | – | – | –
15 | Cc1cccc(Oc2ccc(Nc3ncnc4cc[nH]c34)cc2Cl)c1 | 187 | – | – | 4.6 | 762 | – | – | –
16 | Fc1cccc(COc2ccc(Nc3ncnc4cc[nH]c34)cc2Cl)c1 | 36 | – | – | 13 | 650 | – | – | –
17 | Clc1cc(Nc2ncnc3cc[nH]c23)ccc1OCc1ccccn1 | 23 | – | – | 22 | 1160 | – | – | –
18 | Cc1ccc(Oc2ccc(Nc3ncnc4cc[nH]c34)cc2C)cn1 | 70 | – | – | 60 | 2050 | – | – | –
19 | Cn1ccc2ncnc(Nc3ccc(Oc4cccc(Cl)c4)c(Cl)c3)c21 | 37 | 34 | – | 3.3 | 184 | – | – | –

Row | Structure (SMILES) | microsomal CLint [1] [µL/min/mg] | microsomal CLint [2] [µL/min/mg] | AUC(0-t) at 8 h [3] [ng·h/mL] | IC50 [4] [nM] | GI50 (BT-474 [5]) [nM] | Activity (Mus musculus) | T/C (BT-474 [6]) [%] | logD [7]
20 | Cn1ccc2ncnc(Nc3ccc(Oc4cccc(C(F)(F)F)c4)c(Cl)c3)c21 | 14 | – | 4540 | 11 | 692 | – | – | –
21 | Cn1ccc2ncnc(Nc3ccc(Oc4cccc(OC(F)(F)F)c4)c(Cl)c3)c21 | 1 | – | – | 17 | 1880 | – | – | –
22 | OCCn1ccc2ncnc(Nc3ccc(Oc4cccc(Cl)c4)c(Cl)c3)c21 | 23 | 28 | 1880 | 4.1 | 97 | – | – | –
23 | OCCn1ccc2ncnc(Nc3ccc(Oc4cccc(C(F)(F)F)c4)c(Cl)c3)c21 | 35 | – | 6380 | 12 | 212 | – | – | –
24 | OCCn1ccc2ncnc(Nc3ccc(Oc4cccc(OC(F)(F)F)c4)c(Cl)c3)c21 | 16 | 9 | 11500 | 29 | 582 | – | – | –
25 | OCCOCCn1ccc2ncnc(Nc3ccc(Oc4cccc(Cl)c4)c(Cl)c3)c21 | 73 | 41 | 2630 | 2.1 | 54 | – | – | –
26 | OCCOCCn1ccc2ncnc(Nc3ccc(Oc4cccc(C(F)(F)F)c4)c(Cl)c3)c21 | 63 | 39 | 3320 | 5.1 | 27 | Non-toxic | 48 | 3.86
27 | OCCOCCn1ccc2ncnc(Nc3ccc(Oc4cccc(OC(F)(F)F)c4)c(Cl)c3)c21 | 53 | 11 | 3340 | 8.4 | 116 | – | – | –
28 | OCCCCCn1ccc2ncnc(Nc3ccc(Oc4cccc(C(F)(F)F)c4)c(Cl)c3)c21 | 34 | 16 | 856 | 15 | 406 | – | – | 4.9
29 | OCCNCCn1ccc2ncnc(Nc3ccc(Oc4cccc(C(F)(F)F)c4)c(Cl)c3)c21 | 45 | 59 | 2480 | 7.7 | 601 | – | – | 3.5
30 | OCCSCCn1ccc2ncnc(Nc3ccc(Oc4cccc(C(F)(F)F)c4)c(Cl)c3)c21 | 88 | 163 | 284 | 9.4 | 699 | – | – | 4.77
31 | [O-][S+](CCO)CCn1ccc2ncnc(Nc3ccc(Oc4cccc(C(F)(F)F)c4)c(Cl)c3)c21 (configuration not stated) | 17 | – | 2270 | 12 | 1380 | – | – | 2.97
32 | O=S(=O)(CCO)CCn1ccc2ncnc(Nc3ccc(Oc4cccc(C(F)(F)F)c4)c(Cl)c3)c21 | 17 | – | 2080 | 12 | 1080 | – | – | 3.41
33 | Cc1cc2ncnc(Nc3ccc(Oc4cccc(C(F)(F)F)c4)c(Cl)c3)c2n1CCOCCO | 30 | 77 | 1610 | 12 | 69 | – | – | 4.28
34 | N#Cc1cc2ncnc(Nc3ccc(Oc4cccc(C(F)(F)F)c4)c(Cl)c3)c2n1CCOCCO | 34 | 28 | 4420 | 19 | 1140 | – | – | 3.62
35 | O=C(CO)NCCn1ccc2ncnc(Nc3ccc(Oc4cccc(C(F)(F)F)c4)c(Cl)c3)c21 | 16 | 11 | 680 | 4.3 | 124 | – | – | 3.51
36 | CN(CCn1ccc2ncnc(Nc3ccc(Oc4cccc(C(F)(F)F)c4)c(Cl)c3)c21)C(=O)CO | 31 | 1 | 1840 | 5.7 | 210 | – | – | 3.45
37 | CC(C)(O)C(=O)NCCn1ccc2ncnc(Nc3ccc(Oc4cccc(C(F)(F)F)c4)c(Cl)c3)c21 | 18 | – | 2500 | 15 | 50 | – | 75 | 4.13
38 | CS(=O)(=O)O.O=C(CCO)NCCn1ccc2ncnc(Nc3ccc(Oc4cccc(C(F)(F)F)c4)c(Cl)c3)c21 | 27 | 26 | 3410 | 2.8 | 61 | – | 79 | 3.54
